Laboratory results: patent US6706663B2, “Herbicidal 3-heterocyclic substituted benzisothiazole and benzisoxazole compounds” (Wyeth, priority 2000, dated 2004)

Key:
ORYSAT (Rice, Tebonnet) [1] = assay: Postemergence herbicidal evaluation; format: in vivo, Oryza sativa, (L.) Tebonnet
Procedure, shortened: (§1)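 Visual 0–9 injury scores versus control plants, covering stand, vigour, malformation, size, chlorosis and general appearance, taken four to five weeks post-spray and averaged over replicate tests. Plants were sprayed at roughly two weeks old and held on greenhouse benches.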

CYPIR (Cyperus iria) = assay: Flooded paddy, postemergence weed control; format: in vivo; settings: postemergence weeds, rated 3-4 weeks after treatment
From the text: (§2) Results of herbicide evaluation are expressed on a rating scale (0-9). The scale is based upon a visual observation of plant stand, vigor, malformation, size, chlorosis and overall plant appearance as compared with a control.
(§3) Plastic containers containing weeds which are 3 to 5 cm tall and rice seedlings at the 1.5 to 2.5 leaf stage are flooded with water. The water is maintained at 1.5 to 3 cm above the soil surface for the duration of the experiment. Test compounds are applied as aqueous/acetone mixtures 50/50 v/v directly into the flood water to provide the equivalent of about 0.0320 to 0.2500 kg/ha of active ingredient. The treated containers are placed on greenhouse benches and cared for in accordance with conventional greenhouse procedures. Three to four weeks after treatment, the test is terminated and each container is examined and herbicidal effect rated according to the rating system provided in Example 87. The compounds evaluated are identified in Example 87 and plant species used are identified in Example 89.

[2] = system: MOOVA (Monochoria vaginalis); assay: Flooded paddy, postemergence weed control; format: in vivo, Presl.; settings: postemergence weeds, rated 3-4 weeks after treatment
From the text: as §2, §3

[3] = system: ECHORC (Echinochloa oryzoides); assay: Flooded paddy, postemergence weed control; format: in vivo, Echinochloa oryzoides (Ard.) Fritsch.; settings: postemergence weeds, rated 3-4 weeks after treatment
From the text: as §2, §3

[4] = system: CYPSE (Cyperus serotinus); assay: Flooded paddy, postemergence weed control; format: in vivo, Rottb.; settings: postemergence weeds, rated 3-4 weeks after treatment
From the text: as §2, §3

[5] = system: MOOVA (Monochoria vaginalis); assay: Flooded paddy, preemergence weed control; format: in vivo, Presl.; settings: rated 3-4 weeks after treatment, 0-9 rating scale
Procedure, shortened: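 Greenhouse paddy test, preemergence. Seeds planted in the top 0.5 cm of silt loam soil, which remained flooded at 1.5–3 cm depth. Scored 0-9 by visual comparison with control.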

ORYSAT (Rice, Tebonnet) [6] = assay: Flooded paddy, post-transplant and postemergence rice tolerance; format: in vivo, Oryza sativa, (L.) Tebonnet; settings: post-transplant rice, rated 3-4 weeks after treatment
From the text: as §2, §3

SETVI (Setaria viridis) [7] = assay: Postemergence herbicidal evaluation; format: in vivo, (L.) Beau
Procedure, shortened: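 Seedlings about two weeks old were sprayed with compound in 50/50 acetone/water plus 0.5% TWEEN 20, at the equivalent of about 0.0040 to 1.000 kg/ha. Plants were kept in a greenhouse and visually rated 0-9 against a control four to five weeks after treatment. Repeat tests were averaged.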

[8] = system: SAGPY (Sagittaria pygmaea); assay: Flooded paddy, postemergence weed control; format: in vivo, L.; settings: postemergence weeds, rated 3-4 weeks after treatment
From the text: as §2, §3

[9] = system: ECHCG (Echinochloa crus-galli); assay: Preemergence herbicidal evaluation; format: in vivo, (L.) Beau; settings: preemergence, rated 4-5 weeks after treatment
Procedure, shortened: (§4)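 Visual 0-9 rating versus untreated control, taken four to five weeks post-treatment, scoring stand, vigor, malformation, size, chlorosis and overall appearance. Compound applied as aqueous acetone spray to freshly seeded soil cups, then kept under standard greenhouse care.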

SETVI (Setaria viridis) [10] = assay: Preemergence herbicidal evaluation; format: in vivo, (L.) Beau; settings: preemergence, rated 4-5 weeks after treatment
Procedure, shortened: as §4

[11] = system: TRZAWR (Wheat, Winter, cv Riband); assay: Postemergence herbicidal evaluation; format: in vivo, Triticum aestivum
Procedure, shortened: as §1

[12] = system: ABUTH (Abutilon theophrasti); assay: Preemergence herbicidal evaluation; format: in vivo, Medic.; settings: preemergence, rated 4-5 weeks after treatment
ORYSAT (Rice, Tebonnet) [13] = assay: Flooded paddy, post-transplant rice tolerance; format: in vivo, Oryza sativa, (L.) Tebonnet; settings: flooded paddy, post-transplant rice, rated 3-4 weeks after treatment, 0-9 rating scale
Procedure, shortened: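 Visual 0–9 injury rating against a control, covering stand, vigor, malformation, size, chlorosis and overall appearance. Treatment was post-transplant onto flooded containers (water 1.5–3 cm deep, silt loam) holding two ten-day-old cv. Tebonnet seedlings, maintained on greenhouse benches.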

## Cc1cc(C)c(-c2nsc3ccc(-n4c(=O)cc(C(F)(F)F)n(C)c4=O)cc23)s1 [Compound 27, 3-[3-(3,5-dimethyl-2-thienyl)-1,2-benzisothiazol-5-yl]-1-methyl-6-(trifluoromethyl)uracil]
ORYSAT (Rice, Tebonnet) [1]; rate 0.0320 kg/ha
  Postemergence herbicidal rating, ORYSAT: 4.5
ORYSAT (Rice, Tebonnet) [1]; rate 0.0620 kg/ha
  Postemergence herbicidal rating, ORYSAT: 4.5
CYPIR (Cyperus iria); 0.0320 kg/ha into flood water
  herbicide rating (0-9) CYPIR: 9.0
CYPIR (Cyperus iria); 0.0620 kg/ha into flood water
  herbicide rating (0-9) CYPIR: 9.0
CYPIR (Cyperus iria); 0.1250 kg/ha into flood water
  herbicide rating (0-9) CYPIR: 9.0
[2]; 0.0320 kg/ha into flood water
  herbicide rating (0-9) MOOVA: 6.0
[2]; 0.0620 kg/ha into flood water
  herbicide rating (0-9) MOOVA: 9.0
[2]; 0.1250 kg/ha into flood water
  herbicide rating (0-9) MOOVA: 9.0
[3]; 0.0320 kg/ha into flood water
  herbicide rating (0-9) ECHORC: 0.0
[3]; 0.0620 kg/ha into flood water
  herbicide rating (0-9) ECHORC: 7.0
[3]; 0.1250 kg/ha into flood water
  herbicide rating (0-9) ECHORC: 9.0
[4]; 0.0320 kg/ha into flood water
  herbicide rating (0-9) CYPSE: 0.0
[4]; 0.0620 kg/ha into flood water
  herbicide rating (0-9) CYPSE: 0.0
[4]; 0.1250 kg/ha into flood water
  herbicide rating (0-9) CYPSE: 4.0
[5]; rate 0.0080 kg/ha
  herbicidal rating, MOOVA: 6.0
[5]; rate 0.0320 kg/ha
  herbicidal rating, MOOVA: 9.0
[5]; rate 0.1250 kg/ha
  herbicidal rating, MOOVA: 9.0
ORYSAT (Rice, Tebonnet) [6]; 0.0320 kg/ha into flood water
  herbicide rating (0-9) ORYSAT (rice tolerance): 2.0
ORYSAT (Rice, Tebonnet) [6]; 0.0620 kg/ha into flood water
  herbicide rating (0-9) ORYSAT (rice tolerance): 4.0
ORYSAT (Rice, Tebonnet) [6]; 0.1250 kg/ha into flood water
  herbicide rating (0-9) ORYSAT (rice tolerance): 6.0
SETVI (Setaria viridis) [7]; rate 0.0320 kg/ha
  Postemergence herbicidal rating, SETVI: 7.0
SETVI (Setaria viridis) [7]; rate 0.0620 kg/ha
  Postemergence herbicidal rating, SETVI: 9.0
[8]; 0.0320 kg/ha into flood water
  herbicide rating (0-9) SAGPY: 0.0
[8]; 0.0620 kg/ha into flood water
  herbicide rating (0-9) SAGPY: 0.0
[8]; 0.1250 kg/ha into flood water
  herbicide rating (0-9) SAGPY: 0.0
[9]; Rate 0.0620 kg/ha
  ECHCG preemergence herbicidal rating: 6.0
[9]; Rate 0.1250 kg/ha
  ECHCG preemergence herbicidal rating: 7.0
[9]; Rate 0.2500 kg/ha
  ECHCG preemergence herbicidal rating: 7.0
SETVI (Setaria viridis) [10]; Rate 0.0620 kg/ha
  SETVI preemergence herbicidal rating: 9.0
SETVI (Setaria viridis) [10]; Rate 0.1250 kg/ha
  SETVI preemergence herbicidal rating: 9.0
SETVI (Setaria viridis) [10]; Rate 0.2500 kg/ha
  SETVI preemergence herbicidal rating: 9.0
[11]; rate 0.0320 kg/ha
  Postemergence herbicidal rating, TRZAWR: 5.0
[11]; rate 0.0620 kg/ha
  Postemergence herbicidal rating, TRZAWR: 5.5
[12]; Rate 0.0620 kg/ha
  ABUTH preemergence herbicidal rating: 5.0
[12]; Rate 0.1250 kg/ha
  ABUTH preemergence herbicidal rating: 6.0
[12]; Rate 0.2500 kg/ha
  ABUTH preemergence herbicidal rating: 9.0
ORYSAT (Rice, Tebonnet) [13]; rate 0.0080 kg/ha
  herbicidal rating, ORYSAT (rice tolerance): 1.0
ORYSAT (Rice, Tebonnet) [13]; rate 0.0320 kg/ha
  herbicidal rating, ORYSAT (rice tolerance): 2.0
ORYSAT (Rice, Tebonnet) [13]; rate 0.1250 kg/ha
  herbicidal rating, ORYSAT (rice tolerance): 3.7

## Cc1ccc(-c2nsc3ccc(-n4c(=O)cc(C(F)(F)F)n(C)c4=O)cc23)s1 [Compound 21, 1-methyl-3-[3-(5-methyl-2-thienyl)-1,2-benzisothiazol-5-yl]-6-(trifluoromethyl)uracil]
ORYSAT (Rice, Tebonnet) [1]; rate 0.0320 kg/ha
  Postemergence herbicidal rating, ORYSAT: 4.0
ORYSAT (Rice, Tebonnet) [1]; rate 0.0620 kg/ha
  Postemergence herbicidal rating, ORYSAT: 3.5
ORYSAT (Rice, Tebonnet) [1]; rate 0.1250 kg/ha
  Postemergence herbicidal rating, ORYSAT: 4.5
CYPIR (Cyperus iria); 0.0320 kg/ha into flood water
  herbicide rating (0-9) CYPIR: 9.0
CYPIR (Cyperus iria); 0.0620 kg/ha into flood water
  herbicide rating (0-9) CYPIR: 9.0
CYPIR (Cyperus iria); 0.1250 kg/ha into flood water
  herbicide rating (0-9) CYPIR: 9.0
[2]; 0.0320 kg/ha into flood water
  herbicide rating (0-9) MOOVA: 9.0
[2]; 0.0620 kg/ha into flood water
  herbicide rating (0-9) MOOVA: 9.0
[2]; 0.1250 kg/ha into flood water
  herbicide rating (0-9) MOOVA: 9.0
[3]; 0.0320 kg/ha into flood water
  herbicide rating (0-9) ECHORC: 6.0
[3]; 0.0620 kg/ha into flood water
  herbicide rating (0-9) ECHORC: 9.0
[3]; 0.1250 kg/ha into flood water
  herbicide rating (0-9) ECHORC: 9.0
[4]; 0.0320 kg/ha into flood water
  herbicide rating (0-9) CYPSE: 0.0
[4]; 0.0620 kg/ha into flood water
  herbicide rating (0-9) CYPSE: 0.0
[4]; 0.1250 kg/ha into flood water
  herbicide rating (0-9) CYPSE: 0.0
[5]; rate 0.0080 kg/ha
  herbicidal rating, MOOVA: 7.0
[5]; rate 0.0320 kg/ha
  herbicidal rating, MOOVA: 9.0
[5]; rate 0.1250 kg/ha
  herbicidal rating, MOOVA: 9.0
ORYSAT (Rice, Tebonnet) [6]; 0.0320 kg/ha into flood water
  herbicide rating (0-9) ORYSAT (rice tolerance): 4.0
ORYSAT (Rice, Tebonnet) [6]; 0.0620 kg/ha into flood water
  herbicide rating (0-9) ORYSAT (rice tolerance): 7.0
ORYSAT (Rice, Tebonnet) [6]; 0.1250 kg/ha into flood water
  herbicide rating (0-9) ORYSAT (rice tolerance): 7.0
SETVI (Setaria viridis) [7]; rate 0.0320 kg/ha
  Postemergence herbicidal rating, SETVI: 2.0
SETVI (Setaria viridis) [7]; rate 0.0620 kg/ha
  Postemergence herbicidal rating, SETVI: 7.0
SETVI (Setaria viridis) [7]; rate 0.1250 kg/ha
  Postemergence herbicidal rating, SETVI: 9.0
[8]; 0.0320 kg/ha into flood water
  herbicide rating (0-9) SAGPY: 0.0
[8]; 0.0620 kg/ha into flood water
  herbicide rating (0-9) SAGPY: 0.0
[8]; 0.1250 kg/ha into flood water
  herbicide rating (0-9) SAGPY: 0.0
[9]; Rate 0.0620 kg/ha
  ECHCG preemergence herbicidal rating: 0.0
[9]; Rate 0.1250 kg/ha
  ECHCG preemergence herbicidal rating: 5.0
[9]; Rate 0.2500 kg/ha
  ECHCG preemergence herbicidal rating: 6.5
SETVI (Setaria viridis) [10]; Rate 0.0620 kg/ha
  SETVI preemergence herbicidal rating: 6.5
SETVI (Setaria viridis) [10]; Rate 0.1250 kg/ha
  SETVI preemergence herbicidal rating: 9.0
SETVI (Setaria viridis) [10]; Rate 0.2500 kg/ha
  SETVI preemergence herbicidal rating: 9.0
[11]; rate 0.0320 kg/ha
  Postemergence herbicidal rating, TRZAWR: 4.0
[11]; rate 0.0620 kg/ha
  Postemergence herbicidal rating, TRZAWR: 4.5
[11]; rate 0.1250 kg/ha
  Postemergence herbicidal rating, TRZAWR: 4.5
[12]; Rate 0.0620 kg/ha
  ABUTH preemergence herbicidal rating: 4.0
[12]; Rate 0.1250 kg/ha
  ABUTH preemergence herbicidal rating: 7.5
[12]; Rate 0.2500 kg/ha
  ABUTH preemergence herbicidal rating: 9.0
ORYSAT (Rice, Tebonnet) [13]; rate 0.0080 kg/ha
  herbicidal rating, ORYSAT (rice tolerance): 0.0
ORYSAT (Rice, Tebonnet) [13]; rate 0.0320 kg/ha
  herbicidal rating, ORYSAT (rice tolerance): 2.0
ORYSAT (Rice, Tebonnet) [13]; rate 0.1250 kg/ha
  herbicidal rating, ORYSAT (rice tolerance): 3.0
